According to ChEMBL document CHEMBL5036330, “Discovery of 8,9-seco-ent-Kaurane Diterpenoids as Potential Leads for the Treatment of Triple-Negative Breast Cancer” (J Med Chem, 2021):
Activity calls are given as the source filed them. No cut-off for these calls is given here.

Experiments:
[1] = test system: MDA-MB-468; assay: Cytotoxicity against human MDA-MB-468 cells assessed as reduction in cell viability incubated for 96 hrs by MTT method; type: functional, cell-based; settings: MDA-MB-468, 96 h
[2] = test system: MDA-MB-231; assay: Antiproliferative activity against human MDA-MB-231 cells assessed as supression of long term proliferative capacity measured after 2 weeks by Colony formation assay; type: functional, cell-based; settings: dose 0.05-0.2 µM
[3] = test system: MDA-MB-231; assay: Induction of apoptosis in human MDA-MB-231 cells assessed as early apoptotic cells at 1 uM measured after 24 hrs by Annexin V/Propidium iodide stain based Flow cytometry (reference value: 3.34%); type: functional
[4] = test system: MDA-MB-231; assay: Induction of apoptosis in human MDA-MB-231 cells assessed as late apoptotic cells at 1 uM measured after 24 hrs by Annexin V/Propidium iodide stain based Flow cytometry (reference value: 2.78%); type: functional
[5] = test system: MDA-MB-468; assay: Induction of apoptosis in human MDA-MB-468 cells assessed as late apoptotic cells at 2 uM measured after 24 hrs by Annexin V/Propidium iodide stain based Flow cytometry (reference value: 3.98%); type: functional
[6] = test system: MDA-MB-468; assay: Induction of apoptosis in human MDA-MB-468 cells assessed as early apoptotic cells at 5 uM measured after 24 hrs by Annexin V/Propidium iodide stain based Flow cytometry (reference value: 7.98%); type: functional
[7] = test system: MDA-MB-468; assay: Anticancer activity in human MDA-MB-468 cells xenografted mouse model assessed as tumor growth inhibition at 5 mg/kg, ip treated for 33 days relative to control; type: functional, organism-based; settings: time 33.0 day
[8] = test system: MDA-MB-231; assay: Induction of cell cycle arrest in human MDA-MB-231 cells assessed as accumulation of cells at G1 phase at 2 uM measured after 24 hrs by flow cytometry (reference value: 47.7%); type: functional
[9] = test system: MDA-MB-468; assay: Induction of cell cycle arrest in human MDA-MB-468 cells assessed as accumulation of cells at G1 phase at 1 uM measured after 24 hrs by flow cytometry (reference value: 26.6%); type: functional
[10] = test system: MDA-MB-468; assay: Induction of cell cycle arrest in human MDA-MB-468 cells assessed as accumulation of cells at G2 phase at 1 uM measured after 24 hrs by flow cytometry (reference value: 26.5%); type: functional
[11] = test system: MDA-MB-468; assay: Induction of cell cycle arrest in human MDA-MB-468 cells assessed as accumulation of cells at G2 phase at 2 uM measured after 24 hrs by flow cytometry (reference value: 26.5%); type: functional
[12] = test system: MDA-MB-231; assay: Induction of mitochondrial depolarization in human MDA-MB-231 cells assessed as aggregates at 2 uM in dark by JC10 staining based fluorescence microscopy (reference value: 94.4%); type: functional
[13] = test system: MDA-MB-231; assay: Induction of mitochondrial depolarization in human MDA-MB-231 cells assessed as monomers at 5 uM in dark by JC10 staining based fluorescence microscopy (reference value: 5.6%); type: functional
[14] = test system: MDA-MB-468; assay: Induction of mitochondrial depolarization in human MDA-MB-468 cells assessed as aggregates at 5 uM in dark by JC10 staining based fluorescence microscopy (reference value: 91.6%); type: functional
[15] = test system: MDA-MB-468; assay: Induction of apoptosis in human MDA-MB-468 cells assessed as decrease in Bcl2/Bax ratio at 1 to 5 uM measured after 24 hrs by Western blot analysis; type: functional, cell-based; settings: dose 1-5 µM
[16] = test system: MDA-MB-468; assay: Induction of apoptosis in human MDA-MB-468 cells assessed as increase in cleaved PARP at 1 to 5 uM measured after 24 hrs by Western blot analysis; type: functional, cell-based; settings: dose 1-5 µM
[17] = test system: MDA-MB-231; assay: Induction of autophagy in human MDA-MB-231 cells assessed as increase in ATG5 expression at 1 to 5 uM incubated for 24 hrs by Western blot analysis; type: functional, cell-based; settings: dose 1-5 µM
[18] = test system: MDA-MB-231; assay: Induction of autophagy in human MDA-MB-231 cells assessed as increase in LC3-II expression at 1 to 5 uM incubated for 24 hrs by Western blot analysis; type: functional, cell-based; settings: dose 1-5 µM
[19] = test system: MDA-MB-231; assay: Induction of autophagy in human MDA-MB-231 cells assessed as elimination of p62 at 1 to 5 uM incubated for 24 hrs by Western blot analysis; type: functional, cell-based; settings: dose 1-5 µM
[20] = test system: MDA-MB-468; assay: Induction of autophagy in human MDA-MB-468 cells assessed as increase in ATG5 expression at 1 to 5 uM incubated for 24 hrs by Western blot analysis; type: functional, cell-based; settings: dose 1-5 µM
[21] = test system: MDA-MB-468; assay: Induction of autophagy in human MDA-MB-468 cells assessed as increase in LC3-II expression at 1 to 5 uM incubated for 24 hrs by Western blot analysis; type: functional, cell-based; settings: dose 1-5 µM
[22] = test system: MDA-MB-231; assay: Antiinvasive activity against human MDA-MB-231 cells measured upto 72 hrs by transwell invasion assay relative to control; type: functional, cell-based; settings: dose 0.1-0.2 µM, time hrs <=72
[23] = test system: MDA-MB-231; assay: Antiinvasive activity against in human MDA-MB-231 cells assessed as reduction in MMP2 expression measured upto 72 hrs by Western blot analysis; type: functional, cell-based; settings: dose 0.1-0.2 µM, time hrs <=72
[24] = test system: MDA-MB-231; assay: Inhibition of PI3K phosphorylation in human MDA-MB-231 cells measured at 1 to 5 uM after 24 hrs by Western blot analysis; type: cell-based; settings: dose 1-5 µM
[25] = molecular target: Serine/threonine-protein kinase mTOR (Homo sapiens) (UniProt P42345); assay: Inhibition of mTOR phosphorylation in human MDA-MB-468 cells measured after 24 hrs by Western blot analysis; type: cell-based; settings: dose 1-5 µM
[26] = test system: MDA-MB-468; assay: Inhibition of PI3K phosphorylation in human MDA-MB-468 cells measured at 1 to 5 uM after 24 hrs by Western blot analysis; type: cell-based; settings: dose 1-5 µM
[27] = test system: MDA-MB-231; assay: Effect on mTOR expression in human MDA-MB-231 cells measured at 1 to 5 uM after 24 hrs by Western blot analysis; type: functional, cell-based; settings: dose 1-5 µM
[28] = test system: MDA-MB-468; assay: Effect on Akt expression in human MDA-MB-468 cells measured at 1 to 5 uM after 24 hrs by Western blot analysis; type: functional, cell-based; settings: dose 1-5 µM
[29] = species on record: Homo sapiens; assay: Inhibition of PI3K (unknown origin) by ADP-Glo assay
[30] = test system: MDA-MB-231; assay: Cytotoxicity against Akt1-silenced human MBA-MB-231 cells assessed as cell viability measured after 24 hrs; type: functional, cell-based
[31] = test system: MDA-MB-468; assay: Anticancer activity in human MDA-MB-468 cells xenografted mouse model assessed as reduction in tumor volume at 10 mg/kg, ip treated for 33 days; type: functional; settings: MDA-MB-468, ip, 792 h, time 33 day
[32] = test system: MDA-MB-468; assay: Antitumor activity against human MDA-MB-468 cells xenografted in NOD/SCID mouse assessed as decrease in Ki67 expression in tumor tissue at 5 to 10 mg/kg, ip treated for 33 days by immunohistochemical analysis; type: functional, organism-based; settings: dose 5-10 mg/kg, time 33.0 day
[33] = test system: MDA-MB-231; assay: Antitumor activity against human MDA-MB-231 cells xenografted in NOD/SCID mouse assessed as decrease in CD31 expression in tumor tissue at 5 to 10 mg/kg, ip treated for 33 days by immunohistochemical analysis; type: functional, organism-based; settings: dose 5-10 mg/kg, time 33.0 day
[34] = test system: MDA-MB-231; assay: Antitumor activity against human MDA-MB-231 cells xenografted in NOD/SCID mouse assessed as increase in TUNEL expression in tumor tissue at 5 to 10 mg/kg, ip treated for 33 days by immunohistochemical analysis; type: functional, organism-based; settings: dose 5-10 mg/kg, time 33.0 day
[35] = test system: MDA-MB-468; assay: Antitumor activity against human MDA-MB-468 cells xenografted in NOD/SCID mouse assessed as increase in TUNEL expression in tumor tissue at 5 to 10 mg/kg, ip treated for 33 days by immunohistochemical analysis; type: functional, organism-based; settings: dose 5-10 mg/kg, time 33.0 day
[36] = Selectivity index, ratio of IC50 for human MCF-10A cells to IC50 for human MBA-MB-231 cells; type: functional

C=C1C(=O)C2=C[C@H]1CCC(=O)[C@]1(C)[C@H](O)CCC(C)(C)[C@H]1C[C@H]2O
IC50 [1]: 71.6 nM | Activity [2]: Active | Activity [3]: 6.59% | Activity [4]: 11.2% | Activity [5]: 12.5% | Activity [6]: 21% | Activity [7]: Active | Activity [8]: 33.8% | Activity [9]: 14.3% | Activity [10]: 57.9% | Activity [11]: 58.1% | Activity [12]: 56.9% | Activity [13]: 76.2% | Activity [14]: 13.3% | Activity [15]: Active | Activity [16]: Active | Activity [17]: Active | Activity [18]: Active | Activity [19]: Active | Activity [20]: Active | Activity [21]: Active | Activity [22]: Dose-Dependent Effect | Activity [23]: Active | inhibition [24]: inactive | inhibition [25]: Active | inhibition [26]: inactive | Activity [27]: inactive | Activity [28]: inactive | inhibition [29]: inactive | Activity [30]: inactive | inhibition in vivo at 10 mg/kg [31]: 44.8% | Activity [32]: Active | Activity [33]: Active | Activity [34]: Active | Activity [35]: Active | Selectivity Index [36]: 14
